From patent US20070249827A1, “Meropenem Intermediatein in Crystalling Form” (SANDOZ AG, priority 2004, published 2007)

Test: Stability comparison between crystalline form and amorphous form (storage 72 h at 70° C.)
Format: physicochemical
Conditions: for content, starting value / sum of all by-products, starting value: before storage

Row | Structure (SMILES) | content after 72 h at 70° C. [% by weight] | sum of all by-products after 72 h at 70° C. | content, starting value [% by weight] | sum of all by-products, starting value [%]
1 | C[C@@H](O)[C@H]1C(=O)N2C(C(=O)OCc3ccc([N+](=O)[O-])cc3)=C(S[C@H]3C[C@@H](C(=O)N(C)C)N(C(=O)OCc4ccc([N+](=O)[O-])cc4)C3)[C@H](C)[C@H]12 [Compound of formula I in crystalline form] [(4R,5S,6S)-(p-nitrobenzyl) 3-[[(3S,5S)-1(-p-nitrobenzyloxycarbonyl)-5-(dimethylaminocarbonyl)-3-pyrrolidinyl]thio]-6-[(1R)-1-hydroxyethyl]-4-methyl-7-oxo-1-azabicyclo[3.2.0]hept-2-ene-2-carboxylate] | 99.1 | <0.3% | 99.4 | <0.3
2 | C[C@@H](O)[C@H]1C(=O)N2C(C(=O)OCc3ccc([N+](=O)[O-])cc3)=C(S[C@H]3C[C@@H](C(=O)N(C)C)N(C(=O)OCc4ccc([N+](=O)[O-])cc4)C3)[C@H](C)[C@H]12 [Compound of formula I in amorphous form, (4R,5S,6S)-(p-nitrobenzyl) 3-[[(3S,5S)-1(-p-nitrobenzyloxycarbonyl)-5-(dimethylaminocarbonyl)-3-pyrrolidinyl]thio]-6-[(1R)-1-hydroxyethyl]-4-methyl-7-oxo-1-azabicyclo[3.2.0]hept-2-ene-2-carboxylate] | 90.8 | sum of all by-products 5.7% | 92.4 | 2.5
